Legend:
[1] = test system: induction of TAT by dexamethasone in HepG2 cells; assay: HepG2 tyrosine aminotransferase (TAT) assay; assay type: cell-based, human; conditions: HepG2 cells, challenge of 100 nM dexamethasone; Ki from IC50 by Cheng and Prusoff equation
[2] = target: T1, human recombinant GR (Homo sapiens, UniProt P04150); assay: Human glucocorticoid receptor (GR) fluorescence polarisation (FP) binding assay; conditions: human recombinant GR, fluorescence polarisation binding assay; read-out: GR binding
T1 construct: purchased PanVera P2812
T1 sequence (P04150 1-777): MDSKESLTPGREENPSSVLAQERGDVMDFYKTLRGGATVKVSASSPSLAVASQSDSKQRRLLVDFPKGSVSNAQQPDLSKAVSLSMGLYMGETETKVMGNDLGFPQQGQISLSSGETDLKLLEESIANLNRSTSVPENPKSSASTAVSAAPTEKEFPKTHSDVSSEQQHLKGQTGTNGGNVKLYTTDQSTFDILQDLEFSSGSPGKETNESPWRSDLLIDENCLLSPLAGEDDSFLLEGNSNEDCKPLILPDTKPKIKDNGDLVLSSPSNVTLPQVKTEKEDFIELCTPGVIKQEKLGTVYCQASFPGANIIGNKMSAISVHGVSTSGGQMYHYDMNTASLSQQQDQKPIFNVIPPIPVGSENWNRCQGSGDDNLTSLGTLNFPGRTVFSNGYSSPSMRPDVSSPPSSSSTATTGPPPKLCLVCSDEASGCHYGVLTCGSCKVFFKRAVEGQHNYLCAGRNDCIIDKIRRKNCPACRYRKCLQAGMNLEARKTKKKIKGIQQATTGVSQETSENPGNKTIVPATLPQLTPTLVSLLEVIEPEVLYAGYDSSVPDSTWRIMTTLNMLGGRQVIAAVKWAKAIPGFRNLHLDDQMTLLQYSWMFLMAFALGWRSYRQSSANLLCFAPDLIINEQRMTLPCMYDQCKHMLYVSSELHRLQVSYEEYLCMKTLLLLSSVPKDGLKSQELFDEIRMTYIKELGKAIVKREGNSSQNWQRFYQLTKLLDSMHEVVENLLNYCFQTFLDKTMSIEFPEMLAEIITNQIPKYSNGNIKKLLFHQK
Procedure, shortened: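 Competition fluorescence polarisation: 0.5 nM GS Red labelled glucocorticoid and 1 nM recombinant human GR with 8-point half-log compound series, 1% DMSO, 4 h room temperature, potassium phosphate pH 7.4 buffer with molybdate, EDTA, DTT. Affinity derived from the drop in polarisation, normalised to blank wells.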

In the case of `O=C(c1ccccn1)[C@]12Cc3cnn(-c4ccc(F)c(F)c4)c3C=C1CCN(S(=O)(=O)c1ccc(Cl)c(Cl)c1)C2` [Example 15C, (R)-(6-((3,4-dichlorophenyl)sulfonyl)-1-(3,4-difluorophenyl)-4,4a,5,6,7,8-hexahydro-1H-pyrazolo[3,4-g]isoquinolin-4a-yl)(pyridin-2-yl)methanone], the Ki [1] is reported as 20 to 100 nM and the Ki [2] is reported as under 0.5 nM.
In the case of `COc1c(F)cc(S(=O)(=O)N2CCC3=Cc4c(cnn4-c4ccc(F)cc4)C[C@]3(C(=O)c3ccccn3)C2)cc1F` [Example 15D, (R)-(6-((3,5-difluoro-4-methoxyphenyl)sulfonyl)-1-(4-fluorophenyl)-4,4a,5,6,7,8-hexahydro-1H-pyrazolo[3,4-g]isoquinolin-4a-yl)(pyridin-2-yl)methanone], the Ki [1] is reported as under 20 nM and the Ki [2] is reported as 0.5 to 1 nM.
In the case of `CN(C)c1ccc(S(=O)(=O)N2CCC3=Cc4c(cnn4-c4ccc(F)cc4)C[C@]3(C(=O)c3ccccn3)C2)cn1` [Example 16, (R)-(6-((6-(dimethylamino)pyridin-3-yl)sulfonyl)-1-(4-fluorophenyl)-4,4a,5,6,7,8-hexahydro-1H-pyrazolo[3,4-g]isoquinolin-4a-yl)(pyridin-2-yl)methanone], the Ki [1] is reported as 20 to 100 nM and the Ki [2] is reported as under 0.5 nM.
`Cn1cc(S(=O)(=O)N2CCC3=Cc4c(cnn4-c4ccc(F)cc4)C[C@]3(C(=O)c3cc(C(F)(F)F)ccn3)C2)cn1` [Example 18, (R)-(1-(4-fluorophenyl)-6-((1-methyl-1H-pyrazol-4-yl)sulfonyl)-4,4a,5,6,7,8-hexahydro-1H-pyrazolo[3,4-g]isoquinolin-4a-yl)(4-(trifluoromethyl)pyridin-2-yl)methanone] gave a Ki [1] of under 20 nM and a Ki [2] of under 0.5 nM.
Compound `O=C(c1cscn1)[C@]12Cc3cnn(-c4ccc(F)cc4)c3C=C1CCN(S(=O)(=O)c1ccc(Cl)c(Cl)c1)C2` [Example 19, (R)-(6-((3,4-dichlorophenyl)sulfonyl)-1-(4-fluorophenyl)-4,4a,5,6,7,8-hexahydro-1H-pyrazolo[3,4-g]isoquinolin-4a-yl)(thiazol-4-yl)methanone] has a Ki [1] of under 20 nM and a Ki [2] of under 0.5 nM.
